We go through 7 compounds from patent publication US10167299B2, “1-(3-aminopropyl) substituted cyclic amine compounds, preparation method therefor, and pharmaceutical compositions and uses thereof” (SHANGHAI INSTITUTE OF MATERIA MEDICA, CHINESE ACADEMY OF …, priority 2013, dated 2019).

pIC50: −log10 of the molar value. Values after ≈ are worked out from the molar mass of the structure shown. Where two headings read alike, the source gives them in different places.

For one data set, the system named is HIV-1SF162 virus strain. The data set is described as follows: Inhibition activity on TZM-bl cells infected with HIV-1SF162. The conditions noted are these: for EC50: Human immunodeficiency virus 1, TZM-bl; for therapeutic index (TI): TZM-bl cells infected with HIV-1SF162.
The nature of data set [1]: Cytotoxicity (CC50) in TZM-bl cells. Type of data set: cell-based. The conditions noted are these: human.
The next data set has as its target CCR5 (Homo sapiens (Human), UniProt P51681). The data set can be described thus: Calcium flux inhibition experiment. The data set is classed as cell-based. The conditions noted are these: HEK293/CCR5-Gα16 cell line, calcium flux; read-out: CCR5 IC50. On the technique in general: A change in cytosolic calcium serves as a functional read-out for many receptors and channels.

For orientation: EC50 means the midpoint of the concentration-response curve. Low readings indicate greater potency, high ones weaker potency. For orientation: CC50 means the concentration giving 50% cytotoxicity. One may read the pIC50 as the negative decadic logarithm of the IC50, by convention in mol/L.

Chain of CCR5 (P51681 whole entry): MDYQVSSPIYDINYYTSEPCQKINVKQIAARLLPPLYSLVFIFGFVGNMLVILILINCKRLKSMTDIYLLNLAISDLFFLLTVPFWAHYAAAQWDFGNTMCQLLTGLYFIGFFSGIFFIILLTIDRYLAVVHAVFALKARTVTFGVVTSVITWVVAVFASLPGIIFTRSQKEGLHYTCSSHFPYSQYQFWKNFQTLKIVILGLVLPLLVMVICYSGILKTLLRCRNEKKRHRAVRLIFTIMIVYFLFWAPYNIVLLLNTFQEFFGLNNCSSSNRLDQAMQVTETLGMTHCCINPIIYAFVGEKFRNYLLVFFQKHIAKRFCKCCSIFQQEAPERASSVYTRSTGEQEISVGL

For `CCC(=O)N1CCc2c(nc(C)n2C2CC3CCC(C2)N3CC[C@H](NC(C)=O)c2nccs2)C1` (stereo partly drawn) [Compound 120, N-{(1S)-3-[(3-endo)-3-(5-propionyl-2-methyl-4,5,6,7-tetrahydro-1H-imidazo[4,5-c]pyridin-1-yl)-8-azabicyclo[3.2.1]octane-8-yl]-1-(thiazol-2-yl)-propyl}acetamide], in the data set with HIV-1SF162 virus strain, the EC50 amounted to 0.831 µg/mL (≈ 1.71 µM) and the “therapeutic index (TI)” value is given as greater than 240.76. For the same compound, the CC50 in data set [1] was greater than 200 µg/mL. Also, the pIC50 at CCR5 was 7.56.

As for `CC(=O)N[C@@H](CCN1C2CCC1CC(n1c(C)nc3c1CCN(C(=O)C(C)C)C3)C2)c1nccs1` (stereo partly drawn) [Compound 121, N-{(1S)-3-[(3-endo)-3-(5-isobutyryl-2-methyl-4,5,6,7-tetrahydro-1H-imidazo[4,5-c]pyridin-1-yl)-8-azabicyclo[3.2.1]octane-8-yl]-1-(thiazol-2-yl)-propyl}acetamide], in the data set with HIV-1SF162 virus strain, the EC50 worked out at 0.328 µg/mL (≈ 0.658 µM) and the “therapeutic index (TI)” value is reported as greater than 386.37. The same compound registered a CC50 in data set [1] greater than 200 µg/mL. Besides, the pIC50 on CCR5 was 7.49.

As to `CC(=O)N[C@@H](CCN1C2CCC1CC(n1c(C)nc3c1CCN(C(=O)C1CC1)C3)C2)c1nccs1` (stereo partly drawn) [Compound 122, N-{(1S)-3-[(3-endo)-3-(5-cyclopropionyl-2-methyl-4,5,6,7-tetrahydro-1H-imidazo[4,5-c]pyridin-1-yl)-8-azabicyclo[3.2.1]octane-8-yl]-1-(thiazol-2-yl)-propyl}acetamide], in the data set on HIV-1SF162 virus strain, it took 0.69 µg/mL (≈ 1.39 µM) to reach a half-maximal effect (EC50) and the “therapeutic index (TI)” value is given as greater than 290.06. In data set [1], the CC50 is greater than 200 µg/mL. The pIC50 on CCR5 was 7.61.

Consider `CC(=O)N[C@@H](CCN1C2CCC1CC(n1c(C)nc3c1CCN(C(C)=O)C3)C2)c1ccc(Cl)s1` (stereo partly drawn) [Compound 125, N-{(1S)-3-[(3-endo)-3-(5-acetyl-2-methyl-4,5,6,7-tetrahydro-1H-imidazo[4,5-c]pyridin-1-yl)-8-azabicyclo[3.2.1]octane-8-yl]-1-(5-chlorothiophen-2-yl)-propyl}acetamide], for which, in the data set with HIV-1SF162 virus strain, a half-maximal response (EC50) required 0.286 µg/mL (≈ 0.567 µM) and the “therapeutic index (TI)” value is given as greater than 699.27. In addition, the CC50 in data set [1] was greater than 200 µg/mL. Further, the pIC50 at CCR5 is 7.91.

Take `COC(=O)N1CCc2c(nc(C)n2C2CC3CCC(C2)N3CC[C@H](NC(C)=O)c2ccc(Cl)s2)C1` (stereo partly drawn) [Compound 126, Methyl 1-{(endo)-8-[(S)-3-acetamido-3-(5-chlorothiophen-2-yl)-propyl]-8-azabicyclo[3.2.1]octan-3-yl}-2-methyl-1,4,6,7-tetrahydro-5H-imidazo[4,5-c]pyridine-5-carboxylate]: in the data set with HIV-1SF162 virus strain, the EC50 amounted to 0.091 µg/mL (≈ 0.175 µM) and the “therapeutic index (TI)” value is greater than 2207.68. This compound also returned a cytotoxic concentration (CC50) in data set [1] greater than 200 µg/mL. The pIC50 on CCR5 is 7.66.

Take `CCC(=O)N1CCc2c(nc(C)n2C2CC3CCC(C2)N3CC[C@H](NC(C)=O)c2ccc(Cl)s2)C1` (stereo partly drawn) [Compound 127, N-{(1S)-3-[(3-endo)-3-(5-propionyl-2-methyl-4,5,6,7-tetrahydro-1H-imidazo[4,5-c]pyridin-1-yl)-8-azabicyclo[3.2.1]octane-8-yl]-1-(5-chlorothiophen-2-yl)-propyl}acetamide]: in the data set with HIV-1SF162 virus strain, the midpoint of the response, the EC50, lay at 0.145 µg/mL (≈ 0.28 µM) and the “therapeutic index (TI)” value was greater than 1379.94. Also, in data set [1] (TZM-bl cells (Table 3), read-out: CC50), the CC50 was greater than 200 µg/mL. Also, the pIC50 on CCR5 was 7.64.

In the case of `CCCC(=O)N1CCc2c(nc(C)n2C2CC3CCC(C2)N3CC[C@H](NC(C)=O)c2ccc(Cl)s2)C1` (stereo partly drawn) [Compound 128, N-{(1S)-3-[(3-endo)-3-(5-n-butyryl-2-methyl-4,5,6,7-tetrahydro-1H-imidazo[4,5-c]pyridin-1-yl)-8-azabicyclo[3.2.1]octane-8-yl]-1-(5-chlorothiophen-2-yl)-propyl}acetamide], in the data set on HIV-1SF162 virus strain, the EC50 stood at 0.174 µg/mL (≈ 0.327 µM) and the “therapeutic index (TI)” value was greater than 1150.82. The CC50 in data set [1] is greater than 200 µg/mL. Moreover, the pIC50 on CCR5 is 7.76.
